The values below come from paper PMC11477289, “Low-Basicity 5-HT6 Receptor Ligands from the Group of Cyclic Arylguanidine Derivatives and Their Antiproliferative Activity Evaluation” (International Journal of Molecular Sciences, 2024).

One may read the Ki as the dissociation constant of the complex between target and ligand, obtained from inhibition or displacement. What is called melting point is the temperature, or range, at which the solid turns liquid.

Read-outs that look alike come from different tables or passages of the source.

The nature of series [1]: Affinity to phospholipids, IAM column (CHI IAM). The series is classed as physicochemical. To be noted: IAM.PC.DD2 column, pH 7.4.
A further series concerns the target T1, human 5-HT6 (Homo sapiens, UniProt P50406).
T1 construct: expressed in transfected cells
In words: [3H]-LSD radioligand binding assay, 5-HT6R. To be noted: HEK293 expressing human 5-HT6R. As to the method:
Next, the ligands’ affinity for the 5-HT6 receptors was evaluated in the [^3H]-LSD radioligand binding assay. Experiments were performed in a stable HEK293 cell line expressing the human 5-HT6R.
The pellets were stored at −80 °C.

The nature of series [2]: Chromatographic hydrophobicity index on C18 column (lipophilicity). The series is classed as physicochemical.
Source text: We began with an assay for lipophilicity, affinity for phospholipids (for 40 compounds), and drug binding to human serum albumin (HSA) (for 20 compounds), using chromatographic protocols developed by Valko [46] and implemented in our laboratory [47]. […] These methods allowed the determination of chromatographic hydrophobicity indices (CHIs), binding to HSA (%HSA), and phospholipids (CHIIAM) using a single-gradient elution experiment and comparison to reference substances.
The mobile phase flow rate was 1.5 mL/min, and the column was maintained at 30 °C. • Chiralpak® HSA (50 mm × 4 mm; 5 µm with safety guard column; Daicel Chiral Technologies, West Chester, PA, USA), mobile phase A: 50 mM ammonium acetate, mobile phase B: HPLC-grade isopropanol (VWR International, Leuven, Belgium). For the first 15 min, the linear gradient from 0 to 20% isopropanol was applied and then held at 20% isopropanol for 12 min. In the last 5 min of the sequence, the mobile phase mixture received a pure ammonium acetate solution. The column temperature was held at 30 °C, whereas the flow rate was 0.9 mL/min.
The reference substances for the calibration of HSA, C18, and IAM columns were purchased, respectively: acetanilide, butyrophenone, diclofenac, and octanonophenone (Alfa Aesar, Haverhill, MA, USA); acetophenone, benzimidazole, colchicine, indole, indometacin, paracetamol, and theophylline (Sigma-Aldrich, Steinheim, Germany); nicardipine and nizatidine (Cayman Chemical, Ann Arbor, MI, USA); carbamazepine, heptanophenone, hexanophenone, propiophenone, and valerophenone (Acros Organic, Pittsburg, PA, USA). Before chromatographic experiments, solutes were dissolved in dimethyl sulfoxide (Avantor Performance Materials Poland S.A., Gliwice, Poland) to obtain a 200 µg/mL concentration. The detection was performed in the UV region at the wavelength from 190 nm to 300 nm. The injected volume was 5 μL, and each compound was analyzed in triplicate.

T1 sequence (P50406 whole entry): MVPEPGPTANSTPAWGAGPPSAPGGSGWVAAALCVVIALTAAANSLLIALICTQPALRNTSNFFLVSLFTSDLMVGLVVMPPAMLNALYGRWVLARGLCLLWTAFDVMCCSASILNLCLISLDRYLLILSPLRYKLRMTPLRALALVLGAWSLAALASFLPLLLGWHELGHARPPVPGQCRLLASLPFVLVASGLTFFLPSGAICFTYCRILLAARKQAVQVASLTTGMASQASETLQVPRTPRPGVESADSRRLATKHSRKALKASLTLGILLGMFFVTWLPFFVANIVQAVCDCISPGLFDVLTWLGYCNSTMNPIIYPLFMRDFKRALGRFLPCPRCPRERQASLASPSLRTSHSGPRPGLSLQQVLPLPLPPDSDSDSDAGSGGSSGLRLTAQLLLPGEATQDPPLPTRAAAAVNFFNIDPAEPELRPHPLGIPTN

For `Nc1nc2ccccc2n1S(=O)(=O)c1csc2ccccc12` [PR 8, 1-(1-benzothiophene-3-sulfonyl)-1H-1,3-benzodiazol-2-amine], the melting point was 192 to 195 °C. Moreover, the “CHI IAM” value in series [1] was 40.3. On human 5-HT6 (5-HT6 Ki), this compound returned a Ki of 0.133 ± 0.033 µM. Besides, in series [2], the “CHI C18 pH 2.6” value is 89.8, the “CHI C18 pH 7.4” value is recorded as 90.3 and the “CHI C18 pH 10.5” value was 91.0.
The compound `O=S(=O)(NC1=Nc2ccccc2CN1)c1ccc(F)cc1` [PR 14, N-(3,4-dihydroquinazolin-2-yl)-4-fluorobenzene-1-sulfonamide] yielded a melting point of 215 to 216 °C. In addition, in series [1], the “CHI IAM” value is 31.3. Besides, on human 5-HT6 (read-out: 5-HT6 Ki), the Ki amounted to 2.44 ± 0.61 µM. Also, in series [2], the “CHI C18 pH 2.6” value is on record as 75.4, the “CHI C18 pH 7.4” value is given as 75.0 and the “CHI C18 pH 10.5” value turned out to be 75.7.
Turning to `O=S(=O)(NC1=Nc2ccccc2CN1)c1ccccc1Cl` [PR 18, 2-chloro-N-(3,4-dihydroquinazolin-2-yl)benzene-1-sulfonamide], the melting point lay within 217 to 222 °C. Further, the “CHI IAM” value in series [1] came out at 33.5. On human 5-HT6 (read-out: 5-HT6 Ki), the Ki is 1.8 ± 0.451 µM. In addition, in series [2], the “CHI C18 pH 2.6” value is on record as 76.4, the “CHI C18 pH 7.4” value was determined as 76.3 and the “CHI C18 pH 10.5” value was 86.6.
Regarding `O=S(=O)(NC1=Nc2ccccc2CN1)c1ccc(Cl)c(Cl)c1` [PR 21, N -(3,4-dihydroquinazolin-2-yl)-3,4-dichlorobenzene-1-sulfonamide], the melting point was in the range of 192 to 193 °C. In addition, the “CHI IAM” value in series [1] amounted to 42.0. Further, the Ki at human 5-HT6 (read-out: 5-HT6 Ki) was determined as 1.02 ± 0.256 µM. Also, in series [2], the “CHI C18 pH 2.6” value is reported as 94.2, the “CHI C18 pH 7.4” value worked out at 92.3 and the “CHI C18 pH 10.5” value was found to be 95.2.
In the case of `O=S(=O)(NC1=Nc2ccccc2CN1)c1c(Cl)cccc1Cl` [PR 22, 2,6-dichloro-N-(3,4-dihydroquinazolin-2-yl)benzene-1-sulfonamide], the melting point was in the range of 168 to 174 °C. Also, the Ki on human 5-HT6 (read-out: 5-HT6 Ki) is 1.46 ± 0.364 µM.
Compound `O=S(=O)(NC1=Nc2ccccc2CN1)c1cc(Cl)cc(Cl)c1` [PR 23, 3,5-dichloro-N-(3,4-dihydroquinazolin-2-yl)benzene-1-sulfonamide] came in with a melting point of 208 to 211 °C. In addition, the “CHI IAM” value in series [1] amounted to 42.6. The Ki at human 5-HT6 (read-out: 5-HT6 Ki) is 0.609 ± 0.152 µM. In series [2], the “CHI C18 pH 2.6” value turned out to be 95.2, the “CHI C18 pH 7.4” value is 94.6 and the “CHI C18 pH 10.5” value stood at 97.7.
For the compound `COc1cccc(S(=O)(=O)NC2=Nc3ccccc3CN2)c1` [PR 24, N -(3,4-dihydroquinazolin-2-yl)-3-methoxybenzene-1-sulfonamide], the melting point fell in the range of 108 to 114 °C. Further, the “CHI IAM” value in series [1] was determined as 31.4. Further, on human 5-HT6 (read-out: 5-HT6 Ki), the Ki stood at 0.906 ± 0.227 µM. Further, in series [2], the “CHI C18 pH 2.6” value was 74.1, the “CHI C18 pH 7.4” value worked out at 74.5 and the “CHI C18 pH 10.5” value was found to be 75.5.
Compound `COc1ccc(Cl)cc1S(=O)(=O)NC1=Nc2ccccc2CN1` [PR 25, 5-chloro-N-(3,4-dihydroquinazolin-2-yl)-2-methoxybenzene-1-sulfonamide] came in with a melting point of 157 to 165 °C. Besides, the “CHI IAM” value in series [1] is recorded as 35.3. Also, the Ki at human 5-HT6 (read-out: 5-HT6 Ki) came to 4.64 ± 1.16 µM. Moreover, in series [2], the “CHI C18 pH 2.6” value is 82.8, the “CHI C18 pH 7.4” value amounted to 81.0 and the “CHI C18 pH 10.5” value worked out at 83.0.
`O=S(=O)(NC1=Nc2cccc(Cl)c2CN1)c1ccc2ccccc2c1` [PR 31, N -(5-chloro-3,4-dihydroquinazolin-2-yl)naphthalene-2-sulfonamide] showed a melting point of 202 to 204 °C. The “CHI IAM” value in series [1] is given as 46.0. Also, at human 5-HT6 (read-out: 5-HT6 Ki), the Ki amounted to 2.17 ± 0.538 µM. For the same compound, in series [2], the “CHI C18 pH 2.6” value is given as 99.7, the “CHI C18 pH 7.4” value worked out at 97.4 and the “CHI C18 pH 10.5” value was found to be 100.6.
Regarding `O=S(=O)(NC1=Nc2cc(Cl)ccc2CN1)c1ccc2ccccc2c1` [PR 33, N -(7-chloro-3,4-dihydroquinazolin-2-yl)naphthalene-2-sulfonamide], the melting point was 220 to 222 °C. The “CHI IAM” value in series [1] turned out to be 44.9. In addition, the Ki on human 5-HT6 (read-out: 5-HT6 Ki) was 1.96 ± 0.434 µM. Besides, in series [2], the “CHI C18 pH 2.6” value stood at 98.3, the “CHI C18 pH 7.4” value amounted to 96.4 and the “CHI C18 pH 10.5” value amounted to 99.9.
Regarding `CC1NC(NS(=O)(=O)c2ccc3ccccc3c2)=Nc2cc(Cl)ccc21` (stereo not drawn) [PR 37, N -(7-chloro-4-methyl-3,4-dihydroquinazolin-2-yl)naphthalene-2-sulfonamide], the melting point fell in the range of 167 to 171 °C. The “CHI IAM” value in series [1] turned out to be 46.1. Moreover, the Ki at human 5-HT6 (read-out: 5-HT6 Ki) was found to be 2.22 ± 0.534 µM. Further, in series [2], the “CHI C18 pH 2.6” value was determined as 101.0, the “CHI C18 pH 7.4” value came out at 100.1 and the “CHI C18 pH 10.5” value is on record as 102.6.
In turn, `O=S(=O)(NC1=NCCc2ccccc2N1)c1ccc2ccccc2c1` [PR 38, N -(4,5-dihydro-1H-1,3-benzodiazepin-2-yl)naphthalene-2-sulfonamide] had a melting point of 175 to 180 °C. In addition, on human 5-HT6 (read-out: 5-HT6 Ki), the Ki came to 1.41 ± 0.331 µM.
In the same order, the values of `O=S(=O)(NC1=Nc2ccccc2CN1)c1cccc2cccc(Cl)c12` [PR 45, 8-chloro-N-(3,4-dihydroquinazolin-2-yl)naphthalene-1-sulfonamide] are 103 to 105 °C and 0.736 ± 0.169 µM.
As to `O=S(=O)(NC1=Nc2cc(Cl)ccc2CN1)c1cccc2ccccc12` [PR 48, N -(7-chloro-3,4-dihydroquinazolin-2-yl)naphthalene-1-sulfonamide], the melting point was in the range of 214 to 219 °C. The “CHI IAM” value in series [1] is on record as 44.6. Also, the Ki at human 5-HT6 (read-out: 5-HT6 Ki) is 0.668 ± 0.156 µM. In series [2], the “CHI C18 pH 2.6” value is reported as 97.6, the “CHI C18 pH 7.4” value was determined as 97.1 and the “CHI C18 pH 10.5” value turned out to be 95.9.
Turning to `O=S(=O)(NC1=Nc2ccc(Cl)c(Cl)c2CN1)c1cccc2ccccc12` [PR 50, N -(5,6-dichloro-3,4-dihydroquinazolin-2-yl)naphthalene-1-sulfonamide], the melting point is 233 to 240 °C. Further, the “CHI IAM” value in series [1] is 49.0. The Ki at human 5-HT6 (read-out: 5-HT6 Ki) was found to be 0.451 ± 0.102 µM. In addition, in series [2], the “CHI C18 pH 2.6” value came to 106.2, the “CHI C18 pH 7.4” value was 103.9 and the “CHI C18 pH 10.5” value is 108.6.
With `O=S(=O)(NC1=Nc2cccc(Cl)c2CN1)c1c(Cl)ccc2ccccc12` [PR 52, 2-chloro-N-(5-chloro-3,4-dihydroquinazolin-2-yl)naphthalene-1-sulfonamide], the melting point was in the range of 267 to 270 °C. In addition, the Ki at human 5-HT6 (read-out: 5-HT6 Ki) worked out at 0.133 ± 0.033 µM.
In the same order, the values of `O=S(=O)(NC1=Nc2ccc(F)cc2CN1)c1cccc2ccccc12` [PR 55, N -(6-fluoro-3,4-dihydroquinazolin-2-yl)naphthalene-1-sulfonamide] are 206 to 210 °C and 1.79 ± 0.412 µM.
`O=S(=O)(NC1=Nc2cc(F)ccc2CN1)c1cccc2ccccc12` [PR 56, N -(7-fluoro-3,4-dihydroquinazolin-2-yl)naphthalene-1-sulfonamide]: the melting point was in the range of 222 to 226 °C. In series [1], the “CHI IAM” value came out at 40.5. Also, the inhibitory constant (Ki) on human 5-HT6 (read-out: 5-HT6 Ki) came to 0.876 ± 0.201 µM. Moreover, in series [2], the “CHI C18 pH 2.6” value stood at 91.0, the “CHI C18 pH 7.4” value was 89.0 and the “CHI C18 pH 10.5” value was found to be 95.4.
The compound `O=S(=O)(NC1=Nc2ccc(C(F)(F)F)cc2CN1)c1cccc2ccccc12` [PR 57, N -[6-(trifluoromethyl)-3,4-dihydroquinazolin-2-yl]naphthalene-1-sulfonamide] had a melting point of 215 to 222 °C. Moreover, the Ki on human 5-HT6 (read-out: 5-HT6 Ki) turned out to be 1.02 ± 0.235 µM.
On to `COc1ccc2c(c1)CNC(NS(=O)(=O)c1cccc3ccccc13)=N2` [PR 59, N -(6-methoxy-3,4-dihydroquinazolin-2-yl)naphthalene-1-sulfonamide], for which the melting point was in the range of 263 to 266 °C. For the same compound, in series [1], the “CHI IAM” value is 38.2. Moreover, at human 5-HT6 (read-out: 5-HT6 Ki), the inhibition constant Ki came to 1.96 ± 0.452 µM. Besides, in series [2], the “CHI C18 pH 2.6” value is 84.9, the “CHI C18 pH 7.4” value is 85.0 and the “CHI C18 pH 10.5” value came to 88.4.
Compound `COc1ccc2c(c1)N=C(NS(=O)(=O)c1cccc3ccccc13)NC2` [PR 60, N -(7-methoxy-3,4-dihydroquinazolin-2-yl)naphthalene-1-sulfonamide] registered a melting point of 213 to 217 °C. Also, the “CHI IAM” value in series [1] is on record as 39.2. In addition, the Ki on human 5-HT6 (read-out: 5-HT6 Ki) is 1.41 ± 0.326 µM. Besides, in series [2], the “CHI C18 pH 2.6” value is listed as 88.2, the “CHI C18 pH 7.4” value came out at 87.0 and the “CHI C18 pH 10.5” value is listed as 90.3.
Compound `Cc1ccc2c(c1)N=C(NS(=O)(=O)c1cccc3ccccc13)NC2` [PR 62, N -(7-methyl-3,4-dihydroquinazolin-2-yl)naphthalene-1-sulfonamide] returned a melting point of 166 to 175 °C. In addition, the “CHI IAM” value in series [1] was determined as 41.6. Besides, at human 5-HT6 (read-out: 5-HT6 Ki), the Ki was 0.653 ± 0.151 µM. In series [2], the “CHI C18 pH 2.6” value is on record as 93.2, the “CHI C18 pH 7.4” value amounted to 93.0 and the “CHI C18 pH 10.5” value came out at 93.7.
With `CN(C)c1cccc2c1CNC(NS(=O)(=O)c1cccc3ccccc13)=N2` [PR 63, N -[5-(dimethylamino)-3,4-dihydroquinazolin-2-yl]naphthalene-1-sulfonamide], the Ki on human 5-HT6 (read-out: 5-HT6 Ki) came to 0.151 ± 0.035 µM.
`O=S(=O)(NC1=Nc2ccc(N3CCOCC3)cc2CN1)c1cccc2ccccc12` [PR 65, N -[6-(morpholin-4-yl)-3,4-dihydroquinazolin-2-yl]naphthalene-1-sulfonamide]: the melting point is 278 to 281 °C. The Ki on human 5-HT6 (read-out: 5-HT6 Ki) stood at 4.7 ± 1.08 µM.
In the same order, the values of `CC1NC(NS(=O)(=O)c2cccc3ccccc23)=Nc2ccc(Cl)cc21` (stereo not drawn) [PR 69, N -(6-chloro-4-methyl-3,4-dihydroquinazolin-2-yl)naphthalene-1-sulfonamide] are 144 to 153 °C and 0.372 ± 0.093 µM.
For “N -(3,4-dihydroquinazolin-2-yl)naphthalene-2-sulfonamide [PR 39]”, the Ki at human 5-HT6 (read-out: 5-HT6 Ki) stood at 4.27 ± 0.983 µM.
